Results on 1 molecule are retold here after PubChem BioAssay (NCI).

Test systems include DLD-1 colon; DMS 114 small cell lung; SN12K1 renal; DMS 273 small cell lung; P388 leukemia; KM20L2 colon; HS 578T breast; SN12C renal; HOP-18 NSCLC; MDA-N; P388/ADR leukemia; SNB-78 CNS; XF 498 CNS; M19-MEL melanoma.
Common to all, as to test: NCI tumour cell line growth inhibition, 48 h

SMILES strings stand for the structures.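 Grown in 96-well plates, cells were treated for 48 hours with each compound at five concentrations. Insufficient inhibition: endpoint recorded as highest concentration tested. TGI denotes the concentration required for complete inhibition of growth.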

Regarding `O=C[C@@H](CO)O[C@H](C=O)c1c[nH]c(=O)[nH]c1=O`, the TGI came out at 493 µM in the assay with DLD-1 colon; 232 µM with DMS 114 small cell lung; 183 µM in the assay on SN12K1 renal; 265 µM in the assay with DMS 273 small cell lung; 307 µM in the assay with P388 leukemia; 310 µM in the assay with KM20L2 colon. The TGI turned out to be 402 µM in the assay with HS 578T breast; 551 µM in the assay on SN12C renal; 267 µM in the assay on HOP-18 NSCLC; 307 µM with MDA-N; 373 µM in the assay on P388/ADR leukemia; 890 µM in the assay with SNB-78 CNS. In addition, the TGI in the assay with XF 498 CNS is 86.7 µM; in the assay on M19-MEL melanoma, 406 µM.
